Reference: the NIST ThermoML archive (doi:10.1021/acs.jced.5b00613)

Experiment: xn = mol fraction of the nth substance listed
Details: Liquid, Vibrating tube method

CCCCCCCCCCCCCCCC [hexadecane] + CCCCCC
mass density [kg/m3]
Details | 100 kPa | 1000 kPa | 5000 kPa | 10000 kPa | 20000 kPa | 30000 kPa | 40000 kPa | 50000 kPa | 60000 kPa
348.15 K, x2 = 0.1985 | – | – | – | – | – | – | – | – | 765.6
348.15 K, x2 = 0.4136 | – | – | – | – | – | – | – | – | 751.9
348.15 K, x2 = 0.5007 | – | – | – | – | – | – | – | – | 744.2
348.15 K, x2 = 0.5966 | – | – | – | – | – | – | – | – | 735.5
348.15 K, x2 = 0.7928 | – | – | – | – | – | – | – | 704.3 | 711
373.15 K, x2 = 0.1985 | 706.6 | 707.5 | 711.7 | 716.4 | 725.2 | 733 | 740.1 | 746.6 | 752.7
373.15 K, x2 = 0.4136 | 689.1 | 690.2 | 694.8 | 699.9 | 709.4 | 717.7 | 725.3 | 732.3 | 738.7
373.15 K, x2 = 0.5007 | – | 681 | 685.8 | 691.2 | 701 | 709.7 | 717.5 | 724.6 | 731.2
373.15 K, x2 = 0.5966 | – | 669.9 | 674.9 | 680.7 | 691 | 700 | 708 | 715.3 | 722.1
373.15 K, x2 = 0.7928 | – | 638.3 | 644.3 | 651 | 662.7 | 672.8 | 681.7 | 689.7 | 697
423.15 K, x2 = 0.1985 | 668.8 | 670.8 | 676.3 | 682.5 | 693.7 | 703.3 | 711.9 | 719.7 | 726.8
423.15 K, x2 = 0.4136 | – | 651.3 | 657.6 | 664.5 | 676.6 | 687.1 | 696.3 | 704.6 | 712.1
423.15 K, x2 = 0.5007 | – | 640.9 | 647.6 | 654.9 | 667.6 | 678.5 | 688 | 696.5 | 704.2
423.15 K, x2 = 0.5966 | – | 628.2 | 635.3 | 643.3 | 656.9 | 668.3 | 678.2 | 687.1 | 695.2
423.15 K, x2 = 0.7928 | – | 592.3 | 601.2 | 610.7 | 626.4 | 639.2 | 650.3 | 660 | 668.8
463.15 K, x2 = 0.1985 | – | 640.3 | 647.5 | 655.5 | 669.1 | 680.6 | 690.5 | 699.3 | 707.4
463.15 K, x2 = 0.4136 | – | 618.2 | 626.5 | 635.6 | 650.7 | 663.2 | 673.9 | 683.4 | 692
463.15 K, x2 = 0.5007 | – | 606.1 | 615.2 | 624.9 | 640.9 | 654 | 665.1 | 674.9 | 683.6
463.15 K, x2 = 0.5966 | – | 593 | 602.9 | 613.2 | 630 | 643.6 | 655.2 | 665.3 | 674.4
463.15 K, x2 = 0.7928 | – | – | 563.7 | 577 | 597.1 | 612.8 | 625.8 | 637 | 647
